Earlier results, collected in patent US20080181972A1, “Compositions and Methods for Maintaining, Strengthening, Improving, or Promoting Eye Health” (priority 2007, published 2008).

Tests used:
[1] = tested on: H2O2 formation; details: both in vitro and in vivo
[2] = phytoestrogenic isoflavones
[3] = tested on: LDL; details: conjugated diene, lipid peroxides and TBARS after cupric sulfate
[4] = tested on: bovine aortic endothelial cell- and human endothelial cell-mediated LDL oxidation; details: bovine aortic and human endothelial cells
[5] = in vivo
[6] = tested on: human endothelial cell cultures
[7] = tested on: retina of diabetic rats
[8] = tested on: AGE from Amadori adducts; details: in vitro and in vivo studies
[9] = long-term feeding to rats, 1% in drinking water
[10] = short- and long-term studies
[11] = tested on: intracellular GSH; details: in vitro (cell culture)
[12] = tested on: intracellular GSH in lung, liver and kidney cells; details: in vivo, liver and kidney cells of mice injected daily with 4, 8, or 16 mg/kg for 11 days

## O=c1c(-c2ccc(O)cc2)coc2cc(O)cc(O)c12 [genistein]
[1]
  tumor promoter-induced H2O2 formation: strongly inhibited
[2]
  order of reactivity in scavenging the radical in the aqueous phase: genistein>daidzein=genistin approximately equal to biochanin A=daidzein>formononentin approximately equal to onionin
[3]
  order of ability to reduce LDL oxidizability: quercetine>morin>pelargonidin>genistein>naringin>apigenin
[4]
  endothelial cell-mediated LDL oxidation: inhibited

## CC1=C(/C=C/C(C)=C/C=C/C(C)=C/C=C/C=C(C)/C=C/C=C(C)/C=C/C2=C(C)CCCC2(C)C)C(C)(C)CCC1 [beta-carotene, Beta-carotene]
[5]
  efficiency of conversion to vitamin A in the body: approximately 50%
healthy, non-smokers
  dosage level with no observed adverse effects: ≤ 25 mg per day
Individuals who receive 20 mg/day
  adverse effects observed: increased risk of fatal coronary heart attacks in men with previous myocardial infarction and an increased risk of lung cancer among male smokers

## C/C(=C(\CCOP(=O)(O)O)SC(=O)c1ccccc1)N(C=O)Cc1cnc(C)nc1N [benfotiamine]
[6]
  AGE generation: effective in reducing AGE generation
[7]
  AGE accumulation in the retina: preventing AGE accumulation

## Cc1ncc(C[n+]2csc(CCO)c2C)c(N)n1 [thiamine]
[6]
  AGE generation: effective in reducing AGE generation
[7]
  AGE accumulation in the retina: preventing AGE accumulation

## CC(=O)Oc1c(C)c(C)c2c(c1C)CC[C@@](C)(CCC[C@H](C)CCC[C@H](C)CCCC(C)C)O2 (racemic) [DL-α-tocopheryl acetate]
In vivo
  level at which no adverse effects have been observed: ≤ 800 mg

## CC1=C(/C=C/C(C)=C/C=C/C(C)=C/C=C/C=C(C)/C=C/C=C(C)/C=C/C2=C(C)C(=O)[C@@H](O)CC2(C)C)C(C)(C)C[C@H](O)C1=O [Astaxanthin]
Daily dose of 19.25 mg over 29 days, healthy humans
  ill effects: no ill effects

## O=C1O[C@H]([C@@H](O)CO)C(O)=C1O [vitamin C, Ascorbic acid]
Consumed daily
  daily intake without any known adverse effects: ≥ 1,000 mg

## Cc1ncc(CO)c(CN)c1O [PM, pyridoxamine]
[8]
  inhibition of the formation of AGE from Amadori adducts: potent inhibitor

## NC(=O)c1cccnc1 [niacinamide]
[9]
  carcinogenic effects: No carcinogenic effects
[10]
  toxicity: low toxicity

## O=C(O)CCCCC1CCSS1 (stereo not drawn) [ALA, Alpha-lipoic acid]
[11]
  increase of intracellular GSH levels: 30-70%
[12]
  increase of intracellular GSH levels: 30-70%
